Data reported in patent US20250351832A1, “PHYTOCHEMICALS AS BIOPESTICIDES AND BIOSTIMULANTS” (KAY BEE BIO ORGANICS PVT. LTD., priority 2024, published 2025).
Read-outs that look alike come from different tables or passages of the source.

How the values were obtained:
[1] = system: Thrips; conditions: thrips on cotton plants, greenhouse, dose 1 ml/gm/lit. spray
[2] = system: Mealy Bug; conditions: mealy bug on cotton plants, green house, dose 1 ml/gm/lit. spray
[3] = system: Aphid; assay: whole plant or invertebrate; conditions: 48 h
[4] = system: Aphid; conditions: Aphids on cotton plants, green house; dose 1 ml/gm/lit.; 10 insects/plant, 10 plants/treatment; 48 hrs
[5] = Table 13, descriptive; no test described; cited from earlier work
[6] = system: Spodoptera litura; conditions: Spodoptera litura on castor leaves; dose 1 ml/gm/lit.; 10 insects/treatment; 72 hrs after application
[7] = system: Helicoverpa armigera; conditions: Helicoverpa armigera 3rd instar on chickpea plants, dose 1 ml/gm/lit. spray
[8] = system: Spodoptera litura; assay: whole plant or invertebrate; conditions: 72 h
[9] = system: Mite; conditions: mite on okra plants, green house, dose 1 ml/gm/lit. spray
[10] = system: Helicoverpa armigera; conditions: Helicoverpa armigera on okra fruits, dose 1 ml/gm/lit., 72 Hrs.
[11] = system: Thrips; assay: whole plant or invertebrate; conditions: in Gossypium hirsutum, 48 h
[12] = system: Alternaria alternata; assay: In vitro poisoned food technique against fungus (Ex. 20); format: cell-based; conditions: poisoned food technique, PDA medium, dose 1 ml/gm/lit., after seven days
[13] = system: tomato seedlings; assay: Response of tomato plants, greenhouse growth (Ex. 30); format: in vivo; conditions: tomato seedlings, dose 1 ml/gm/lit
[14] = system: Mealy Bug; conditions: Mealy Bug on cotton leaves, dose 1 ml/gm/lit., 48 Hrs.
[15] = system: Alternaria alternata; assay: Alternaria leaf spot/blight on inoculated tomato plants (Ex. 28); format: in vivo; conditions: tomato plants, Alternaria alternata; after 7 days; dose 1 ml/gm/lit
[16] = system: Mite; conditions: Dose 1 ml/gm/lit.
[17] = system: Thrips; conditions: Thrips on cotton leaves; dose 1 ml/gm/lit.; 10 insects/treatment; 48 hrs after application
[18] = system: Aphid; conditions: Dose 1 ml/gm/lit.
[19] = system: chili seedlings; assay: Response of chili plants, greenhouse growth (Ex. 31); format: in vivo; conditions: chili seedlings, dose 1 ml/gm/lit
[20] = 48 hrs, corrected for water control
[21] = read-out: % Corrected Mortality at 48 Hrs.
[22] = read-out: % Mortality at 48 Hrs.
[23] = 10 insects/treatment, 4 replications

CC1=CC(=O)C(C(C)C)=CC1=O [Thymoquinone]
% Mortality at 48 Hrs. ([1]; 48 hrs after application): 20.00% | Total No. of dead insect at 48 Hrs. ([1]; 48 hrs after application): 20.00 | % Corrected Mortality at 48 Hrs. [1, 20]: 11.11% | % Mortality at 48 Hrs. ([2]; 48 hrs after application): 50.00% | Total No. of dead insect at 48 Hrs. ([2]; 48 hrs after application): 50.00 | % Corrected Mortality at 48 Hrs. [2, 20]: 44.44% | mortality at 1 mL or g/L [3, 21]: 38.2% | mortality at 1 mL or g/L [3, 22]: 47.5% | Total No. of dead insect at 48 Hrs. [4]: 47.50 | Acaricidal Activity - Mode of action [5]: Contact acaricidal activity | Antioxidant Activity - Mode of action [5]: Reducing Oxidative Stress | Bactericidal Activity - Mode of action [5]: Inhibitory effect on spore | Insecticidal Activities - Mode of action [5]: Decreased larval survival | Total No. of dead insect at 72 Hrs. [6]: 4.25 | % Mortality at 72 Hrs. ([7]; 72 hrs after application): 45.00% | % Corrected Mortality at 72 Hrs. ([7]; 72 hrs, corrected for water control): 45.00% | mortality at 1 mL or g/L ([8]; read-out: % Corrected Mortality at 72 Hrs.): 39.5% | mortality at 1 mL or g/L ([8]; read-out: % Mortality at 72 Hrs.): 42.5% | % Mortality at 48 Hrs. ([9]; 48 hrs after application): 30.00% | Total No. of dead insect at 48 Hrs. ([9]; 48 hrs after application): 30.00 | % Corrected Mortality at 48 Hrs. [9, 20]: 26.32% | Total No. of dead insect at 72 Hrs. [10, 23]: 4.25 | % Mortality at 72 Hrs. [10]: 42.50% | % Corrected Mortality at 72 Hrs. ([10]; corrected for water control): 42.50% | mortality at 1 mL or g/L [11, 21]: 11.4% | mortality at 1 mL or g/L [11, 22]: 22.5% | Mean colony Diameter (mm) [12]: 54.00 mm | inhibition of growth at 1 mL or g/L ([12]; vs untreated control, read-out: % Inhibition of growth): 38.6% | Plant Height 5th Day ([13]; 5th day after application): 6.58 cm | Stem Girth 5th Day ([13]; 5th day after application): 1.68 mm | Plant Height 10th Day ([13]; 10th day after application): 7.69 cm | Stem Girth 10th Day ([13]; 10th day after application): 2.30 mm | Plant Height % Increase over pre on 10th Day ([13]; 10th day): 41.36% | Stem Girth % Increase over pre on 10th Day ([13]; 10th day): 74.24% | CCI 5th Day ([13]; 5th day after application): 14.21 | CCI % Increase over pre on 10th Day ([13]; 10th day): 30.73% | Root Length (cm) 10th Day ([13]; 10th day): 4.42 cm | CCI 10th Day ([13]; 10th day after application): 16.21 | Root Length % Increase over control ([13]; 10th day, vs water control): 32.93% | Total No. of dead insect at 48 Hrs. [14, 23]: 5.25 | % Mortality at 48 Hrs. [14]: 52.50% | % Corrected Mortality at 48 Hrs. ([14]; corrected for water control): 50.00% | % Disease reduction over Control [15]: 44.63% | Total No. of dead insect at 48 Hrs. ([16]; 10 insects/treatment, 4 replications, okra leaves): 3.25 | % Corrected Mortality at 48 Hrs. ([16]; 48 hrs): 27.03% | % Mortality at 48 Hrs. ([16]; 48 hrs): 32.50% | Total No. of dead insect at 48 Hrs. [17]: 2.25 | Total No. of dead insect at 48 Hrs. ([18]; 10 insects/treatment, 4 replications, cotton leaves): 4.75 | % Corrected Mortality at 48 Hrs. ([18]; 48 hrs): 40.00% | CCI 5th Day ([19]; 5th day after application): 13.76 | Plant Height (cm) 5th Day ([19]; 5th day after application): 5.77 cm | CCI % Increase over pre on 10th Day ([19]; 10th day): 58.19% | Plant Height % Increase over pre on 10th Day ([19]; 10th day): 63.27% | Root Lenght (cm) 10th Day ([19]; 10th day): 4.16 cm | Stem Girth % Increase over pre on 10th Day ([19]; 10th day): 57.48% | CCI 10th Day ([19]; 10th day after application): 14 | Plant Height (cm) 10th Day ([19]; 10th day after application): 6.89 cm | Root Lenght % Increase over control ([19]; 10th day, vs water control): 52.17%
